Key:
S. aureus (209P strain) = assay: Preliminary testing of antimicrobial properties on agar, S. aureus; assay type: cell-based, Staphylococcus aureus
From the text: (§1) Table S4. Results of preliminary testing the antimicrobial properties of the VVVHINGGKF (V10F), GVVVRLANFG (G10G),
VQGLVHISEI (V10I), QQVNVKILGI (Q10I) peptides against S. aureus, MRSA, B. cereus, and E. coli bacteria cells on agar.

MRSA (SA 180-F strain) = assay: Preliminary testing of antimicrobial properties on agar, MRSA SA 180-F; assay type: cell-based, Methicillin-resistant Staphylococcus aureus
From the text: as §1
(§2) VQGLVHISEI (V10I), QQVNVKILGI (Q10I) peptides against S. aureus, MRSA, B. cereus, and E. coli bacteria cells on agar. […]

MRSA (ATCC 43300 strain) = assay: Preliminary testing of antimicrobial properties on agar, MRSA ATCC 43300; assay type: cell-based, Methicillin-resistant Staphylococcus aureus
From the text: as §1, §2
MRSA (ATCC 43300 Non-AMP Non-AMP Non-AMP Non-AMP Non-AMP

[1] = system: B. cereus (IP-5812 strain); assay: Preliminary testing of antimicrobial properties on agar, B. cereus; assay type: cell-based, Bacillus cereus
From the text: as §1, §2

E. coli (K12 strain) = assay: Preliminary testing of antimicrobial properties on agar, E. coli; assay type: cell-based, Escherichia coli
From the text: as §1, §2

GVVVRLANFG [G10G]
antimicrobial properties on agar (S. aureus (209P strain); peptide 1 µM): Non-AMP
antimicrobial properties on agar (S. aureus (209P strain); peptide 10 µM): Non-AMP
antimicrobial properties on agar (S. aureus (209P strain); peptide 100 µM): Non-AMP
antimicrobial properties on agar (S. aureus (209P strain); peptide 1000 µM): Non-AMP
antimicrobial properties on agar (S. aureus (209P strain); peptide 10000 µM): AMP
antimicrobial properties on agar (MRSA (SA 180-F strain); peptide 1 µM): Non-AMP
antimicrobial properties on agar (MRSA (SA 180-F strain); peptide 10 µM): Non-AMP
antimicrobial properties on agar (MRSA (SA 180-F strain); peptide 100 µM): Non-AMP
antimicrobial properties on agar (MRSA (SA 180-F strain); peptide 1000 µM): Non-AMP
antimicrobial properties on agar (MRSA (SA 180-F strain); peptide 10000 µM): Non-AMP
antimicrobial properties on agar (MRSA (ATCC 43300 strain); peptide 1 µM): Non-AMP
antimicrobial properties on agar (MRSA (ATCC 43300 strain); peptide 10 µM): Non-AMP
antimicrobial properties on agar (MRSA (ATCC 43300 strain); peptide 100 µM): Non-AMP
antimicrobial properties on agar (MRSA (ATCC 43300 strain); peptide 1000 µM): Non-AMP
antimicrobial properties on agar (MRSA (ATCC 43300 strain); peptide 10000 µM): Non-AMP
antimicrobial properties on agar ([1]; peptide 1 µM): Non-AMP
antimicrobial properties on agar ([1]; peptide 10 µM): Non-AMP
antimicrobial properties on agar ([1]; peptide 100 µM): Non-AMP
antimicrobial properties on agar ([1]; peptide 1000 µM): Non-AMP
antimicrobial properties on agar ([1]; peptide 10000 µM): Non-AMP
antimicrobial properties on agar (E. coli (K12 strain); peptide 1 µM): Non-AMP
antimicrobial properties on agar (E. coli (K12 strain); peptide 10 µM): Non-AMP
antimicrobial properties on agar (E. coli (K12 strain); peptide 100 µM): Non-AMP
antimicrobial properties on agar (E. coli (K12 strain); peptide 1000 µM): Non-AMP
antimicrobial properties on agar (E. coli (K12 strain); peptide 10000 µM): Non-AMP

Reference: paper PMC8745237, “Multiple Antimicrobial Effects of Hybrid Peptides Synthesized Based on the Sequence of Ribosomal S1 Protein from Staphylococcus aureus” (International Journal of Molecular Sciences, 2022)
